The term IC50 denotes the midpoint of a concentration-inhibition curve.

Molecules are shown by their SMILES.

The experiment deals with T1, human GPR84 receptor (Homo sapiens, UniProt Q9NQS5).
T1 construct: frozen aliquots prepared by acCELLerate; host or cells: CHO-K1
T1 sequence (Q9NQS5 whole entry): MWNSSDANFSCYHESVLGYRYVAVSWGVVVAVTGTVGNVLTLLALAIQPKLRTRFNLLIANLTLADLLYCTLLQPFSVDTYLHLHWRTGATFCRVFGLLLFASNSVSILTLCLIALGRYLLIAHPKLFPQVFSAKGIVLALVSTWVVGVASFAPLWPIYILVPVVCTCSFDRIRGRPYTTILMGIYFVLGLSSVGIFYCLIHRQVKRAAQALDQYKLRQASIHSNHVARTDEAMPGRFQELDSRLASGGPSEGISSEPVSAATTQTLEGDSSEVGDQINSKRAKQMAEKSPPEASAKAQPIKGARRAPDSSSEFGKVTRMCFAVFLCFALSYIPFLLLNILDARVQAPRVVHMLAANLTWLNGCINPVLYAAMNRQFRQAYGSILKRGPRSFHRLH
The experiment in a line: cAMP HTRF assay for identification of cellular GPR84 antagonists. The experiment is classed as cell-based. To be noted: CHO-K1 cells stably expressing human GPR84; Forskolin + agonist 6-OAU (EC80); average or median values. The method, boiled down: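 IC50 came from 4-parameter fits over 20 μM–0.07 nM (11 points, duplicate), normalized between DMSO (0%) and agonist-free (100% inhibition) wells. Readout: cAMP-d2/Eu-cryptate HTRF in hGPR84 CHO-K1 cells given forskolin plus agonist, compound preincubated 30 min at room temperature.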
On the technique in general: TR-FRET usually uses a lanthanide donor and a delayed reading to cut background.
Turning to `Cc1cccc(Cn2cc3c(n2)-c2c(oc(C(=O)NCCN4CCC4)c2C)CC3)n1` [Example 67, N-[2-(azetidin-1-yl)ethyl]-8-methyl-2-[(6-methylpyridin-2-yl)methyl]-4,5-dihydro-2H-furo[2,3-g]indazole-7-carboxamide], the IC50 stood at 1810 nM.

For `Cc1cccc(Cn2cc3c(n2)-c2c(oc(C(=O)NCc4cc(C5CC5)on4)c2C)CC3)n1` [Example 68, N-[(5-cyclopropyl-1,2-oxazol-3-yl)methyl]-8-methyl-2-[(6-methylpyridin-2-yl)methyl]-4,5-dihydro-2H-furo[2,3-g]indazole-7-carboxamide], the IC50 was 170 nM.

As to `Cc1cccc(Cn2cc3c(n2)-c2c(oc(C(=O)NCCN4CCCC4)c2C)CC3)n1` [Example 69, 8-methyl-2-[(6-methylpyridin-2-yl)methyl]-N-[2-(pyrrolidin-1-yl)ethyl]-4,5-dihydro-2H-furo[2,3-g]indazole-7-carboxamide], the IC50 amounted to 750 nM.

As for `Cc1cccc(Cn2cc3c(n2)-c2c(oc(C(=O)NCc4ccn(C)n4)c2C)CC3)n1` [Example 71, 8-methyl-N-[(1-methyl-1H-pyrazol-3-yl)methyl]-2-[(6-methylpyridin-2-yl)methyl]-4,5-dihydro-2H-furo[2,3-g]indazole-7-carboxamide], the IC50 was 360 nM.

For `Cc1cccc(Cn2cc3c(n2)-c2c(oc(C(=O)NCc4ncco4)c2C)CC3)n1` [Example 72, 8-methyl-2-[(6-methylpyridin-2-yl)methyl]-N-(1,3-oxazol-2-ylmethyl)-4,5-dihydro-2H-furo[2,3-g]indazole-7-carboxamide], the IC50 came to 240 nM.

For `Cc1ncccc1Cn1cc2c(n1)-c1c(oc(C(=O)NC[C@@H]3CCCO3)c1C)CC2` [Example 73, 8-methyl-2-[(2-methylpyridin-3-yl)methyl]-N-[(2S)-tetrahydrofuran-2-ylmethyl]-4,5-dihydro-2H-furo[2,3-g]indazole-7-carboxamide], the IC50 came out at 140 nM.

Regarding `Cc1ncccc1Cn1cc2c(n1)-c1c(oc(C(=O)NC[C@@H]3COCCO3)c1C)CC2` [Example 74, N-[(2R)-1,4-dioxan-2-ylmethyl]-8-methyl-2-[(2-methylpyridin-3-yl)methyl]-4,5-dihydro-2H-furo[2,3-g]indazole-7-carboxamide], the IC50 was 160 nM.

For `Cc1ccc(Cn2cc3c(n2)-c2c(oc(C(=O)NC[C@@H]4CCCO4)c2C)CC3)cn1` [Example 75, 8-methyl-2-[(6-methylpyridin-3-yl)methyl]-N-[(2S)-tetrahydrofuran-2-ylmethyl]-4,5-dihydro-2H-furo[2,3-g]indazole-7-carboxamide], the IC50 was 60 nM.

As to `Cc1ccc(Cn2cc3c(n2)-c2c(oc(C(=O)NC[C@@H]4COCCO4)c2C)CC3)cn1` [Example 76, N-[(2R)-1,4-dioxan-2-ylmethyl]-8-methyl-2-[(6-methylpyridin-3-yl)methyl]-4,5-dihydro-2H-furo[2,3-g]indazole-7-carboxamide], the IC50 is 65 nM.

Turning to `Cc1ccc(Cn2cc3c(n2)-c2c(oc(C(=O)NC[C@@H]4CCCO4)c2C)CC3)c(C)n1` [Example 77, 2-[(2,6-dimethylpyridin-3-yl)methyl]-8-methyl-N-[(2S)-tetrahydrofuran-2-ylmethyl]-4,5-dihydro-2H-furo[2,3-g]indazole-7-carboxamide], the IC50 was 170 nM.

Turning to `Cc1ccc(Cn2cc3c(n2)-c2c(oc(C(=O)NC[C@@H]4COCCO4)c2C)CC3)c(C)n1` [Example 78, 2-[(2,6-dimethylpyridin-3-yl)methyl]-N-[(2R)-1,4-dioxan-2-ylmethyl]-8-methyl-4,5-dihydro-2H-furo[2,3-g]indazole-7-carboxamide], the IC50 stood at 190 nM.

Consider `Cc1cc(Cn2cc3c(n2)-c2c(oc(C(=O)NC[C@@H]4CCCO4)c2C)CC3)ccn1` [Example 79, 8-methyl-2-[(2-methylpyridin-4-yl)methyl]-N-[(2S)-tetrahydrofuran-2-ylmethyl]-4,5-dihydro-2H-furo[2,3-g]indazole-7-carboxamide], for which the IC50 came to 58 nM.

Consider `Cc1cc(Cn2cc3c(n2)-c2c(oc(C(=O)NC[C@@H]4COCCO4)c2C)CC3)ccn1` [Example 80, N-[(2R)-1,4-dioxan-2ylmethyl]-8-methyl-2-[(2-methylpyridin-4-yl)methyl]-4,5-dihydro-2H-furo[2,3-g]indazole-7-carboxamide], for which the IC50 came to 57 nM.

Consider `Cc1cc(Cn2cc3c(n2)-c2c(oc(C(=O)NC[C@@H]4CCCO4)c2C)CC3)cc(C)n1` [Example 81, 2-[(2,6-dimethylpyridin-4-yl)methyl]-8-methyl-N-[(2S)-tetrahydrofuran-2-ylmethyl]-4,5-dihydro-2H-furo[2,3-g]indazole-7-carboxamide], for which the IC50 stood at 380 nM.

Turning to `Cc1cc(Cn2cc3c(n2)-c2c(oc(C(=O)NC[C@@H]4COCCO4)c2C)CC3)cc(C)n1` [Example 82, 2-[(2,6-dimethylpyridin-4-yl)methyl]-N-[(2R)-1,4-dioxan-2-ylmethyl]-8-methyl-4,5-dihydro-2H-furo[2,3-g]indazole-7-carboxamide], the IC50 worked out at 440 nM.

As to `Cc1c(C(=O)NC[C@@H]2CCCO2)oc2c1-c1nn(Cc3ncccn3)cc1CC2` [Example 83, 8-methyl-2-(pyrimidin-2-ylmethyl)-N-[(2S)-tetrahydrofuran-2-ylmethyl]-4,5-dihydro-2H-furo[2,3-g]indazole-7-carboxamide], the IC50 came out at 180 nM.

Turning to `Cc1c(C(=O)NC[C@@H]2COCCO2)oc2c1-c1nn(Cc3ncccn3)cc1CC2` [Example 84, N-[(2R)-1,4-dioxan-2-ylmethyl]-8-methyl-2-(pyrimidin-2-ylmethyl)-4,5-dihydro-2H-furo[2,3-g]indazole-7-carboxamide], the IC50 is 180 nM.

For the compound `Cc1c(C(=O)NC[C@@H]2CCCO2)oc2c1-c1nn(Cc3cncnc3)cc1CC2` [Example 85, 8-methyl-2-(pyrimidin-5-ylmethyl)-N-[(2S)-tetrahydrofuran-2-ylmethyl]-4,5-dihydro-2H-furo[2,3-g]indazole-7-carboxamide], the IC50 was 260 nM.

Turning to `Cc1c(C(=O)NC[C@@H]2COCCO2)oc2c1-c1nn(Cc3cncnc3)cc1CC2` [Example 86, N-[(2R)-1,4-dioxan-2-ylmethyl]-8-methyl-2-(pyrimidin-5-ylmethyl)-4,5-dihydro-2H-furo[2,3-g]indazole-7-carboxamide], the IC50 was found to be 180 nM.

As for `Cc1c(C(=O)NC[C@@H]2CCCO2)oc2c1-c1nn(C[C@@H]3COCCO3)cc1CC2` [Example 87, 2-[(2R)-1,4-dioxan-2-ylmethyl]-8-methyl-N-[(2S)-tetrahydrofuran-2-ylmethyl]-4,5-dihydro-2H-furo[2,3-g]indazole-7-carboxamide], the IC50 came to 200 nM.

In the case of `Cc1c(C(=O)NC[C@@H]2COCCO2)oc2c1-c1nn(C[C@@H]3COCCO3)cc1CC2` [Example 88, N,2-bis[(2R)-1,4-dioxan-2-ylmethyl]-8-methyl-4,5-dihydro-2H-furo[2,3-g]indazole-7-carboxamide], the IC50 is 110 nM.

Turning to `Cc1c(C(=O)NC[C@@H]2CCCO2)oc2c1-c1nn(C[C@H]3COCCO3)cc1CC2` [Example 89, 2-[(2S)-1,4-dioxan-2-ylmethyl]-8-methyl-N-[(2S)-tetrahydrofuran-2-ylmethyl]-4,5-dihydro-2H-furo[2,3-g]indazole-7-carboxamide], the IC50 was 40 nM.

Regarding `Cc1c(C(=O)NC[C@@H]2COCCO2)oc2c1-c1nn(C[C@H]3COCCO3)cc1CC2` [Example 90, N-[(2R)-1,4-dioxan-2-ylmethyl]-2-[(2S)-1,4-dioxan-2-ylmethyl]-8-methyl-4,5-dihydro-2H-furo[2,3-g]indazole-7-carboxamide], the IC50 is 47 nM.

Consider `Cc1c(C(=O)NC[C@@H]2CCCO2)oc2c1-c1nn(CC3COC3)cc1CC2` [Example 91, 8-methyl-2-(oxetan-3-ylmethyl)-N-[(2S)-tetrahydrofuran-2-ylmethyl]-4,5-dihydro-2H-furo[2,3-g]indazole-7-carboxamide], for which the IC50 came out at 64 nM.

Consider `Cc1c(C(=O)NC[C@@H]2COCCO2)oc2c1-c1nn(CC3COC3)cc1CC2` [Example 92, N-[(2R)-1,4-dioxan-2-ylmethyl]-8-methyl-2-(oxetan-3-ylmethyl)-4,5-dihydro-2H-furo[2,3-g]indazole-7-carboxamide], for which the IC50 is 130 nM.

For the compound `Cc1c(C(=O)NC[C@@H]2CCCO2)oc2c1-c1nn(CC3(C)COC3)cc1CC2` [Example 93, 8-methyl-2-[(3-methyloxetan-3-yl)methyl]-N-[(2S)-tetrahydrofuran-2-ylmethyl]-4,5-dihydro-2H-furo[2,3-g]indazole-7-carboxamide], the IC50 came out at 17 nM.

Take `Cc1c(C(=O)NC[C@@H]2COCCO2)oc2c1-c1nn(CC3(C)COC3)cc1CC2` [Example 94, N-[(2R)-1,4-dioxan-2-ylmethyl]-8-methyl-2-[(3-methyloxetan-3-yl)methyl]-4,5-dihydro-2H-furo[2,3-g]indazole-7-carboxamide]: the IC50 was 21 nM.

For `Cc1c(C(=O)NC[C@@H]2CCCO2)oc2c1-c1nn(CC3(F)COC3)cc1CC2` [Example 95, 2-[(3-fluorooxetan-3-yl)methyl]-8-methyl-N-[(2S)-tetrahydrofuran-2-ylmethyl]-4,5-dihydro-2H-furo[2,3-g]indazole-7-carboxamide], the IC50 amounted to 31 nM.

On to `Cc1c(C(=O)NC[C@@H]2COCCO2)oc2c1-c1nn(CC3(F)COC3)cc1CC2` [Example 96, N-[(2R)-1,4-dioxan-2-ylmethyl]-2-[(3-fluorooxetan-3-yl)methyl]-8-methyl-4,5-dihydro-2H-furo[2,3-g]indazole-7-carboxamide], for which the IC50 was determined as 47 nM.

Consider `Cc1c(C(=O)NC[C@@H]2CCCO2)oc2c1-c1nn(C[C@H]3CCO3)cc1CC2` [Example 97, 8-methyl-2-[(2R)-oxetan-2-ylmethyl]-N-[(2S)-tetrahydrofuran-2-ylmethyl]-4,5-dihydro-2H-furo[2,3-g]indazole-7-carboxamide], for which the concentration for half-maximal inhibition (IC50) was 620 nM.

The values are drawn from patent US12570666B2, “Furoindazole derivatives” (Bayer Aktiengesellschaft, priority 2019, dated 2026).
